Experimental data from PMC3326641 (Journal of Medicinal Chemistry, 2012).

Target: T1, TrxR (rat liver thioredoxin reductase) (Rattus norvegicus, UniProt O89049)
T1 sequence (O89049 1-499): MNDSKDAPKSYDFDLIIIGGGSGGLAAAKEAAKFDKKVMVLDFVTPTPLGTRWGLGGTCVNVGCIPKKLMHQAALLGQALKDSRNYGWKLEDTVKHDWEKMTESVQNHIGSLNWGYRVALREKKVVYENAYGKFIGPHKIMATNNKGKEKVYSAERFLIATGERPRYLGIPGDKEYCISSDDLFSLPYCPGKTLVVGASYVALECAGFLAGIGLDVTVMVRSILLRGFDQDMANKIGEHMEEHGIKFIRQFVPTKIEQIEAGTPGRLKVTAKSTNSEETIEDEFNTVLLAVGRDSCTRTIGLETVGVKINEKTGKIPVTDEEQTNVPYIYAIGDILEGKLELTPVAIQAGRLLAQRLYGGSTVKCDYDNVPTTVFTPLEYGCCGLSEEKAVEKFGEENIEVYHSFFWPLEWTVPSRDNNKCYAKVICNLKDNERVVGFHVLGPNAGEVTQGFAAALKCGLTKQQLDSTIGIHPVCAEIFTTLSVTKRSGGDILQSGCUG
Experiment: DTNB reduction, absorbance at […] nm
Format: biochemical

CC(C)(C)OC(=O)n1ccc2c[c]([Au-][P+](C3CCCCC3)(C3CCCCC3)C3CCCCC3)ccc21 [compound 4, [5-{Tricyclohexylphosphine gold(I)}-tert-butyl 1H-indole-1-carboxylate]]
inhibition at 40 µM: 39%
